Measured values: US20260232851A1, “METHODS FOR THE DETECTION AND DIAGNOSIS OF CANCERS ASSOCIATED WITH OVEREXPRESSION OF PSMA RECEPTOR” (CLARITY PHARMACEUTICALS LIMITED, priority 2023, published 2026)
Marks after values point to notes of the source that are not given here.

Molecular target: T1, PSMA receptor (Homo sapiens, UniProt Q04609)
T1 construct: localises at sites that overexpress the PSMA receptor and are indicative of a cancer; from tissue; host or cells: Primary prostate cancer and metastatic lesions (lymph node, bone, prostatic bed) in living patients
Experiment: Blinded central reader detection of primary prostate cancer and lesions on PET/CT
Type: in vivo
Conditions: for % TPR (True Positive Rate), detection of primary prostate cancer: 200 MBq ^64Cu-Sar-bisPSMA; for % FNR (False Negative Rate): indeterminate results analysed as negative; for Detection of secondary lesion in lymph node by PET/CT (FIG. 3): same subject imaged with both tracers
Experimental: Patients with untreated, histopathology-proven, intermediate- to high-risk PC, planned for radical prostatectomy underwent ^68Ga-PSMA-11 PET/CT per institutional practice and were subsequently allocated to 1 out of 3 dose cohorts (1:1:3) to receive either 100 MBq, 150 MBq or 200 MBq of ^64Cu-SAR-bisPSMA, respectively. The specified dose of ^64Cu-Sar-bisPSMA was administered to each patient as a single bolus IV injection. […] PET/CT scans at other times after injection of the compound were acquired as required.
Patients were scanned using the standard clinical whole-body PET/CT acquisition protocol defined for each clinical site and in accordance with the Image Acquisition Manual, which contains details of scan acquisition, processing parameters and quality assurance procedures. The same scanner was used for each visit. Typical imaging acquisition parameters are below:
Two independent, blinded, central readers assessed the detection of primary PC on the 200 MBq ^64Cu-SAR-bisPSMA PET/CTs as the primary endpoint. To compare the intensity of lesions on ^68Ga-PSMA-11 and ^64Cu-SAR-bisPSMA PET, both readers determined the SUVs (SUVmax, SUVmean) and tumour-to-background ratio (ratio of lesion SUVmax and background SUVmean) in up to 5 concordant lesions between ^68Ga-PSMA-11 and ^64Cu-SAR-bisPSMA PET/CT as an exploratory endpoint.
Table 5 compares the number of positive, negative and indeterminate images as assessed by each reader. Reader 1 detected primary prostate cancer in 100% of patients to whom 200 MBq of ^64Cu-Sar-bisPSMA was administered, while Reader 2 detected 85.7% of patients. This is in contrast to 77.8% and 83.3%, respectively, when ^68Ga-PSMA-11 was administered.
The number of lesions detected by each reader with imaging by either ^64Cu-Sar-bisPSMA or ^68Ga-PSMA-11 was evaluated. For both readers, the total number of lesions, the mean and median number of lesions detected as a result of imaging by ^64Cu-Sar-bisPSMA was higher when compared with imaging by ^68Ga-PSMA-11, with the difference in these values being statistically significant.

[1] = Reader 1, 200 MBq cohort, scans/evaluable scans
[2] = Reader 2, 200 MBq cohort, 4 ^64Cu scans excluded as non-evaluable

T1 sequence (Q04609 whole entry): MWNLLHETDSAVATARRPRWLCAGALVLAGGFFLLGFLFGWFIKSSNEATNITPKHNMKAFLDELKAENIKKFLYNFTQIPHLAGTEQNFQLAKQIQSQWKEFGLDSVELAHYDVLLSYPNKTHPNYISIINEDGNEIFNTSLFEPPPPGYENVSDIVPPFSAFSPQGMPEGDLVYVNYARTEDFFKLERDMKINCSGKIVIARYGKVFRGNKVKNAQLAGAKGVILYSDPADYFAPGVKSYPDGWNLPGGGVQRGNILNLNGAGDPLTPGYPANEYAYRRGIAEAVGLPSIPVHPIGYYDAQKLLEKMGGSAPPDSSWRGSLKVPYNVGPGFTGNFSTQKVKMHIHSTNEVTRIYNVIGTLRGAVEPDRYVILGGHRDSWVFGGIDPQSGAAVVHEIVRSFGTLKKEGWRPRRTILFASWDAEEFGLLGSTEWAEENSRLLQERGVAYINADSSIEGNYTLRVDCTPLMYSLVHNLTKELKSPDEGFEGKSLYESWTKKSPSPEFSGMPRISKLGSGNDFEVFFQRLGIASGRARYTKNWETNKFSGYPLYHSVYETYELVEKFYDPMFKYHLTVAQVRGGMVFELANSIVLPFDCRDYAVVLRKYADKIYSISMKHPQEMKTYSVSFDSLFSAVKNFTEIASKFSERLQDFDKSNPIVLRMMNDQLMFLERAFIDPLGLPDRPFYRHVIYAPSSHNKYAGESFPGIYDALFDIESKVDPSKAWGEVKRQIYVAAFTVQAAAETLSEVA

Sar-bisPSMA [^64Cu-SAR-bisPSMA]
Mean Difference in number of lesions (^64Cu − ^68Ga) (200 MBq Cohort, Reader 1): 0.28 | Mean Number of Lesions per Participant (200 MBq Cohort, Reader 1): 2.3 | Median Difference in number of lesions (^64Cu − ^68Ga) (200 MBq Cohort, Reader 1): 0.0 | Median Number of Lesions per Participant (200 MBq Cohort, Reader 1): 2 | Total # of Lesions Detected (all participants) (200 MBq Cohort, Reader 1): 41 | Mean Difference in number of lesions (^64Cu − ^68Ga) (200 MBq Cohort, Reader 2): 0.64 | Mean Number of Lesions per Participant (200 MBq Cohort, Reader 2): 2.2 | Median Difference in number of lesions (^64Cu − ^68Ga) (200 MBq Cohort, Reader 2): 0.0 | Median Number of Lesions per Participant (200 MBq Cohort, Reader 2): 2 | Total # of Lesions Detected (all participants) (200 MBq Cohort, Reader 2): 31 | Mean Difference in number of lesions (^64Cu − ^68Ga) (All Cohorts, Reader 1 (N = 29)): 0.41 | Mean Number of Lesions per Participant (All Cohorts, Reader 1 (N = 29)): 2.2 | Median Difference in number of lesions (^64Cu − ^68Ga) (All Cohorts, Reader 1 (N = 29)): 0.0 | Median Number of Lesions per Participant (All Cohorts, Reader 1 (N = 29)): 2 | Total # of Lesions Detected (all participants) (All Cohorts, Reader 1 (N = 29)): 63 | Mean Difference in number of lesions (^64Cu − ^68Ga) (All Cohorts, Reader 2 (N = 17)): 0.52 | Mean Number of Lesions per Participant (All Cohorts, Reader 2 (N = 17)): 2 | Median Difference in number of lesions (^64Cu − ^68Ga) (All Cohorts, Reader 2 (N = 17)): 0.0 | Median Number of Lesions per Participant (All Cohorts, Reader 2 (N = 17)): 4 | Total # of Lesions Detected (all participants) (All Cohorts, Reader 2 (N = 17)): 34 | % TPR (True Positive Rate), detection of primary prostate cancer (Reader 1): 100.0% | Positive images (primary prostate cancer) (Reader 1, 200 MBq ^64Cu-Sar-bisPSMA cohort, scans/evaluable scans): 18/18 | % TPR (True Positive Rate), detection of primary prostate cancer (Reader 1, listed as 64Cu-Sar-bisPSMA): 100% | Indeterminate images [1]: 0/18 | Negative images [1]: 0/18 | % FNR (False Negative Rate) (Reader 1): 0.0% | % TPR (True Positive Rate), detection of primary prostate cancer (Reader 2): 85.7% | Indeterminate images [2]: 2/14* | Negative images [2]: 0/14* | Positive images (primary prostate cancer) [2]: 12/14* | % FNR (False Negative Rate) (Reader 2): 14.3% | Total, mean and median number of lesions detected compared with ^68Ga-PSMA-11 (both readers): higher | Detection of secondary lesion in lymph node by PET/CT (FIG. 3): Detection of a secondary lesion | Detection of secondary lesion in lymph node by PET/CT (FIG. 3) (listed as compound of Formula (I) complexed with ^64Cu): clearly identifies a lesion
